From publication doi:10.1101/2020.06.11.145995v1 (biorxiv, 2020)
Like-named read-outs stand apart in the source and are kept apart here. Each block holds one molecule with its values, some of them ahead of it.

Tests used:
Assay in all cases: biochemical
[1] = molecular target: MKK7 (Homo sapiens, UniProt O14733)
[2] = molecular target: RPS6KA5 (Homo sapiens, UniProt O75582)
[3] = molecular target: PIK3CA(H1047Y (Homo sapiens, UniProt P42336, H1047Y))
[4] = molecular target: TAOK3 (Homo sapiens, UniProt Q9H2K8)
[5] = molecular target: PDGFRB (Homo sapiens, UniProt P09619)
[6] = molecular target: PRKCQ (Homo sapiens, UniProt Q04759)
[7] = molecular target: RSK4 (Homo sapiens, UniProt Q9UK32)
[8] = molecular target: TGFBR2 (Homo sapiens, UniProt P37173)
[9] = molecular target: SRC (Homo sapiens, UniProt P12931)
[10] = molecular target: TAOK1 (Homo sapiens, UniProt Q7L7X3)
[11] = molecular target: NEK9 (Homo sapiens, UniProt Q8TD19)
[12] = molecular target: SRMS (Homo sapiens, UniProt Q9H3Y6)
[13] = molecular target: TBK1 (Homo sapiens, UniProt Q9UHD2)
[14] = molecular target: RET(V804L) (Homo sapiens, UniProt P07949, V804L)
[15] = molecular target: PRKX (Homo sapiens, UniProt P51817)
[16] = molecular target: NDR1 (Homo sapiens, UniProt Q15208)
[17] = molecular target: PCTK2 (Homo sapiens, UniProt Q00537)
[18] = molecular target: QSK (Homo sapiens, UniProt Q9Y2K2)
[19] = molecular target: p38-beta (Homo sapiens, UniProt Q15759)
[20] = molecular target: TAK1 (Homo sapiens, UniProt O43318)
[21] = molecular target: PLK3 (Homo sapiens, UniProt Q9H4B4)
[22] = molecular target: PAK1 (Homo sapiens, UniProt Q13153)
[23] = molecular target: TRKA (Homo sapiens, UniProt P04629)
[24] = molecular target: PRKG2 (Homo sapiens, UniProt Q13237)
[25] = molecular target: TLK1 (Homo sapiens, UniProt Q9UKI8)
[26] = molecular target: ROCK1 (Homo sapiens, UniProt Q13464)
[27] = molecular target: NEK6 (Homo sapiens, UniProt Q9HC98)
[28] = molecular target: PIK3CA(I800L) (Homo sapiens, UniProt P42336, I800L)
[29] = molecular target: NEK1 (Homo sapiens, UniProt Q96PY6)
[30] = read-out: CPT-1-70-1 (1μM) % control
[31] = read-out: CPT-1-70-1 (1μM) % control, Kin.Dom.1-N-terminal
[32] = read-out: HYJ-2-002-1 (1μM) % control
[33] = read-out: HYJ-2-002-1 (1μM) % control, Kin.Dom.1-N-terminal
[34] = read-out: HYJ-2-002-1 (1μM) % control, Kin.Dom.2-C-terminal

Chain of RPS6KA5 (O75582 whole entry): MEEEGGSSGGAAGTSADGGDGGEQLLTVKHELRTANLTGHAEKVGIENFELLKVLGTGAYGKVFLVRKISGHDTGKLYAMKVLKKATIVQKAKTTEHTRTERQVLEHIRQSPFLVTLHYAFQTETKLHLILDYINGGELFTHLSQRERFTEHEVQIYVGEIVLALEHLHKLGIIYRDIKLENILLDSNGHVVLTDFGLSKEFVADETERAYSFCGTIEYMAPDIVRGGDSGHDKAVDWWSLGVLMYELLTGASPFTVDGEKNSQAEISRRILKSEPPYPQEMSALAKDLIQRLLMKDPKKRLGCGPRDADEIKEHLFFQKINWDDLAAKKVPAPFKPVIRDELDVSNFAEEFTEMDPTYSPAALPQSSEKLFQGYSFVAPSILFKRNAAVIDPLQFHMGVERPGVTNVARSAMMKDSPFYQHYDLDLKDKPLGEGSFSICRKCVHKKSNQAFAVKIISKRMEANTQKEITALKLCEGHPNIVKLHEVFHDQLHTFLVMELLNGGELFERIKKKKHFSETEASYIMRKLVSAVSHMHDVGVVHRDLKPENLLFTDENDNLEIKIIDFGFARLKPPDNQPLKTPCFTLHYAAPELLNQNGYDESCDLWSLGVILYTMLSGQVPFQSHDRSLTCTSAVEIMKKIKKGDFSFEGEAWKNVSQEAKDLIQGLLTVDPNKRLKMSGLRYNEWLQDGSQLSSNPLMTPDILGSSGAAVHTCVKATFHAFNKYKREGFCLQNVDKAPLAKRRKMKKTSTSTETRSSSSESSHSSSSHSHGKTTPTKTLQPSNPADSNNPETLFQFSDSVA
Chain of RSK4 (Q9UK32 whole entry): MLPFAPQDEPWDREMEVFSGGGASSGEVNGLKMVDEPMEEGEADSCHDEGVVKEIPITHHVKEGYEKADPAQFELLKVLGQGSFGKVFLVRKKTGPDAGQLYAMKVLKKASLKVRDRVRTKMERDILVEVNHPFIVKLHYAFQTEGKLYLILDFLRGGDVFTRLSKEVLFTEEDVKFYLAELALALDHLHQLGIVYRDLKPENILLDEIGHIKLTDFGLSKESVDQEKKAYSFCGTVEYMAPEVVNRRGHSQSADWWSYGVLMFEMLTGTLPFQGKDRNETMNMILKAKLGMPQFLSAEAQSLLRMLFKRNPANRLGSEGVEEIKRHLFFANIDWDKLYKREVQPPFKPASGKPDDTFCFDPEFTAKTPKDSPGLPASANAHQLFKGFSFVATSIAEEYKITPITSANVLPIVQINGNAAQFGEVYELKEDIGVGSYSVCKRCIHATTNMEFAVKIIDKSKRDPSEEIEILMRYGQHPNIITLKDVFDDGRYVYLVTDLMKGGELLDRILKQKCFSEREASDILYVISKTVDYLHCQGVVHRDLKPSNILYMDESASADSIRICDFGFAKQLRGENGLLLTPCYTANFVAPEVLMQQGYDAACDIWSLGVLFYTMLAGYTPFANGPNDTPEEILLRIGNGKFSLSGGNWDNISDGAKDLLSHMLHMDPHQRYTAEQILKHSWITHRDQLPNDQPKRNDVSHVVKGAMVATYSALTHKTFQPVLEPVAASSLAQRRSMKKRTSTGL
Chain of PIK3CA(H1047Y (P42336 whole entry H1047Y): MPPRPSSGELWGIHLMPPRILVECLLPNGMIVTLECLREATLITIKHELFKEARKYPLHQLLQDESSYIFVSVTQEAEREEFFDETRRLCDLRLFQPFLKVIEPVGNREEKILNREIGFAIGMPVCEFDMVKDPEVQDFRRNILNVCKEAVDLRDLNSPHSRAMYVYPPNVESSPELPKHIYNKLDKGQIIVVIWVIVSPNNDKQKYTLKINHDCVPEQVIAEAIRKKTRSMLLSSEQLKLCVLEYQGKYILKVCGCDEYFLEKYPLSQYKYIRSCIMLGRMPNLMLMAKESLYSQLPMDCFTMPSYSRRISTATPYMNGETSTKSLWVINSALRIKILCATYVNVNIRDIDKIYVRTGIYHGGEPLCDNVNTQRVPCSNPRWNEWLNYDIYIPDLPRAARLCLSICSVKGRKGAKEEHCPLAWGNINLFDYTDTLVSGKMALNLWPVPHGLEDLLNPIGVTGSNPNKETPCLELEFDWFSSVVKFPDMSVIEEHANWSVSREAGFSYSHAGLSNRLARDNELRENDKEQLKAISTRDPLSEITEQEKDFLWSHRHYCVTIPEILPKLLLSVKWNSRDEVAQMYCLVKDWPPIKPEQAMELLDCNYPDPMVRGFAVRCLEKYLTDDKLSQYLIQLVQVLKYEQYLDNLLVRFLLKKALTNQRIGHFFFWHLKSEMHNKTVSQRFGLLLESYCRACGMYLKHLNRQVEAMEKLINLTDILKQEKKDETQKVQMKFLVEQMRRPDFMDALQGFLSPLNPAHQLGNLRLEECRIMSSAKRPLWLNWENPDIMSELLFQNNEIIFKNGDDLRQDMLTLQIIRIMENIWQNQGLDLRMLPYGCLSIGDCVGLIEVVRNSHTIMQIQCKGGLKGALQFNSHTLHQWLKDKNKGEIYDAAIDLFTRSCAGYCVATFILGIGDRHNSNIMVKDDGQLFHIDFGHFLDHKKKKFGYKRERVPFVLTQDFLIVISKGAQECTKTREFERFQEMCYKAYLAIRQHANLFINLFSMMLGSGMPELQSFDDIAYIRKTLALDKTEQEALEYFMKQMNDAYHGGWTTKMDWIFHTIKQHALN
Chain of PDGFRB (P09619 whole entry): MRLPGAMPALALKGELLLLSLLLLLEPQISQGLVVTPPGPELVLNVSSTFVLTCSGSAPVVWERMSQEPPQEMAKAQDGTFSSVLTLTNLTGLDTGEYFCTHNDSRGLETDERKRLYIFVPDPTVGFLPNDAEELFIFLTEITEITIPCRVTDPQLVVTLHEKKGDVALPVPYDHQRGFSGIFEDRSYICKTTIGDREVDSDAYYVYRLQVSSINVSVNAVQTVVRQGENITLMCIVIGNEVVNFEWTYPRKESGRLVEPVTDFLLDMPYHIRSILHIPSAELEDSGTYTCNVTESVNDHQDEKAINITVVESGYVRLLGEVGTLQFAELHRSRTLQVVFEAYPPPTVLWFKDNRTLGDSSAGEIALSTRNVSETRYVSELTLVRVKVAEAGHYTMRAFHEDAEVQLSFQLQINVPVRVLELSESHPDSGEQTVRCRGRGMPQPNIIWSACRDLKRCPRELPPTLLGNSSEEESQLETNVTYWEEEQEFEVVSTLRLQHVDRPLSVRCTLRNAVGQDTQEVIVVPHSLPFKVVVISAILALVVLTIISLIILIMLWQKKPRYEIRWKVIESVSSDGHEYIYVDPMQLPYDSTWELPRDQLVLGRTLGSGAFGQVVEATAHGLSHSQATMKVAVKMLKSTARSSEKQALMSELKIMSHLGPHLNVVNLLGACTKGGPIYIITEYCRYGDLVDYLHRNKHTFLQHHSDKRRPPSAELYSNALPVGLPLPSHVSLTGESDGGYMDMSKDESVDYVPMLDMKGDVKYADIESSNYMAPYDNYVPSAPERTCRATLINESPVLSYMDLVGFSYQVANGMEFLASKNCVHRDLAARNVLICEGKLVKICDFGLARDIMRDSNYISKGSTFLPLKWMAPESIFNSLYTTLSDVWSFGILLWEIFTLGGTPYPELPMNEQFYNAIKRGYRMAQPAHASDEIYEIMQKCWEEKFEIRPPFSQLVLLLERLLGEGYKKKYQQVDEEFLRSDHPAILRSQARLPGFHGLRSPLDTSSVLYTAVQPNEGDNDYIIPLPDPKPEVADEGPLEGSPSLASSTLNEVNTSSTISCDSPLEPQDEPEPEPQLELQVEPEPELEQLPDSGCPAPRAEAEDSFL
Chain of ROCK1 (Q13464 whole entry): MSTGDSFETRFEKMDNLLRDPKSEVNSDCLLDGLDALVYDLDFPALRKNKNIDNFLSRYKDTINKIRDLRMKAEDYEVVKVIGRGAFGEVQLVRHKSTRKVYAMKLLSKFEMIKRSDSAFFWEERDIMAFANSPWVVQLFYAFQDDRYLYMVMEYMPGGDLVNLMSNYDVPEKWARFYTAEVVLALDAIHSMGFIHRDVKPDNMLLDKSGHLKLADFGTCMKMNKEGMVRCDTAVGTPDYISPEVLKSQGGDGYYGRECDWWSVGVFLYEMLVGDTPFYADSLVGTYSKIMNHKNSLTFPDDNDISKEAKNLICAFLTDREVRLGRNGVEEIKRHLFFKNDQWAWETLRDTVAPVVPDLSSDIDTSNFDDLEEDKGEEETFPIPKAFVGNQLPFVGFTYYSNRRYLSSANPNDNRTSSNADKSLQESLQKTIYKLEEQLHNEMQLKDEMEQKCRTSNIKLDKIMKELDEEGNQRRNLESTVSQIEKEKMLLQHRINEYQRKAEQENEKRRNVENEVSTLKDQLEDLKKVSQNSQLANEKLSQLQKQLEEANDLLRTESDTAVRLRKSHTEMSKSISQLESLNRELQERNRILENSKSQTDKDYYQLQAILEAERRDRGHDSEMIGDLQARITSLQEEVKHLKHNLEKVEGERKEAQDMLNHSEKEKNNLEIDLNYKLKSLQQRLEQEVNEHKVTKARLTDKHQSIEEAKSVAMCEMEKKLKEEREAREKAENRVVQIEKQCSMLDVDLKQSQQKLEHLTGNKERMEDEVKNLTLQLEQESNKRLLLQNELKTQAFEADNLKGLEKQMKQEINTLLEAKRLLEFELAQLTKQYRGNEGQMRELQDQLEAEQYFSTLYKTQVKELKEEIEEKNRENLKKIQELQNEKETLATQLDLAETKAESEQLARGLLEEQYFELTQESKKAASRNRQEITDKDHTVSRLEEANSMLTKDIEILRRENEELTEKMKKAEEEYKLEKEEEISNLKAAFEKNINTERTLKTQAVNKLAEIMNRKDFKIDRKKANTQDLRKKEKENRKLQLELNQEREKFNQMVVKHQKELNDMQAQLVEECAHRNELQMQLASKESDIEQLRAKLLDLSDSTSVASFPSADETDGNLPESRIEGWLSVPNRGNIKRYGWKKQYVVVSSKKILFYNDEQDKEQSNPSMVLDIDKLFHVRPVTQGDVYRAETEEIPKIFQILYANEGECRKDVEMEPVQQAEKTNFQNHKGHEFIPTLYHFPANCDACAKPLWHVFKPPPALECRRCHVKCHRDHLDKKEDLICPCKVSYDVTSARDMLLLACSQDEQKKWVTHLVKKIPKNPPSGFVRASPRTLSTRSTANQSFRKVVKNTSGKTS
Chain of PIK3CA(I800L) (P42336 whole entry I800L): as the sequence (P42336 whole entry H1047Y) above, with I800L, Y1047H counted along it

SMILES: CN1CCN(c2ccc(Nc3nc(Oc4ccc(NC(=O)CCl)cc4)c4cc[nH]c4n3)cc2)CC1 [CPT1-70-1]
- remaining activity at 1 µM [1, 30]: 8.1%
- remaining activity at 1 µM [2, 31]: 100%
- remaining activity at 1 µM [3, 30]: 100%
- remaining activity at 1 µM [4, 30]: 71%
- remaining activity at 1 µM [5, 30]: 6.9%
- remaining activity at 1 µM [6, 30]: 100%
- remaining activity at 1 µM [7, 31]: 45%
- remaining activity at 1 µM ([7]; read-out: CPT-1-70-1 (1μM) % control, Kin.Dom.2-C-terminal): 100%
- remaining activity at 1 µM [8, 30]: 100%
- remaining activity at 1 µM [9, 30]: 6.6%
- remaining activity at 1 µM [10, 30]: 96%
- remaining activity at 1 µM [11, 30]: 100%
- remaining activity at 1 µM [12, 30]: 100%
- remaining activity at 1 µM [13, 30]: 43%
- remaining activity at 1 µM [14, 30]: 11%
- remaining activity at 1 µM [15, 30]: 100%
- remaining activity at 1 µM [16, 30]: 37%
- remaining activity at 1 µM [17, 30]: 100%
- remaining activity at 1 µM [18, 30]: 100%
- remaining activity at 1 µM [19, 30]: 100%
- remaining activity at 1 µM [20, 30]: 3.6%
- remaining activity at 1 µM [21, 30]: 100%
- remaining activity at 1 µM [22, 30]: 64%
- remaining activity at 1 µM [23, 30]: 30%
- remaining activity at 1 µM [24, 30]: 100%
- remaining activity at 1 µM [25, 30]: 100%
- remaining activity at 1 µM [26, 30]: 29%
- remaining activity at 1 µM [27, 30]: 100%
- remaining activity at 1 µM [28, 30]: 100%
- remaining activity at 1 µM [29, 30]: 100%

- remaining activity at 1 µM [1, 32]: 8.2%
- remaining activity at 1 µM [2, 33]: 76%
- remaining activity at 1 µM [2, 34]: 100%
- remaining activity at 1 µM [3, 32]: 100%
- remaining activity at 1 µM [4, 32]: 0.45%
- remaining activity at 1 µM [5, 32]: 0%
- remaining activity at 1 µM [6, 32]: 82%
- remaining activity at 1 µM [7, 33]: 100%
- remaining activity at 1 µM [7, 34]: 28%
- remaining activity at 1 µM [8, 32]: 41%
- remaining activity at 1 µM [9, 32]: 0.2%
- remaining activity at 1 µM [10, 32]: 34%
- remaining activity at 1 µM [12, 32]: 8.4%
- remaining activity at 1 µM [13, 32]: 100%
- remaining activity at 1 µM [14, 32]: 1.4%
- remaining activity at 1 µM [15, 32]: 78%
- remaining activity at 1 µM [16, 32]: 100%
- remaining activity at 1 µM [17, 32]: 100%
- remaining activity at 1 µM [18, 32]: 100%
- remaining activity at 1 µM [19, 32]: 0.35%
- remaining activity at 1 µM [20, 32]: 6.6%
- remaining activity at 1 µM [21, 32]: 100%
- remaining activity at 1 µM [22, 32]: 100%
- remaining activity at 1 µM [23, 32]: 6.6%
- remaining activity at 1 µM [24, 32]: 100%
- remaining activity at 1 µM [25, 32]: 74%
- remaining activity at 1 µM [26, 32]: 98%
- remaining activity at 1 µM [27, 32]: 100%
- remaining activity at 1 µM [28, 32]: 100%
- remaining activity at 1 µM [29, 32]: 82%
SMILES: CCN1CCN(Cc2ccc(NC(=O)c3ccc(C)c(CCc4cnc5[nH]ccc5c4OC)c3)cc2C(F)(F)F)CC1 [HYJ-2-002-1]
- remaining activity at 1 µM [11, 32]: 38%
